Source: patent publication US20110311457A1, “METHODS FOR IMAGING VASCULAR INFLAMMATION USING IMPROVED NANOPARTICLE CONTRAST AGENTS” (NANOSCAN IMAGING, LLC, priority 2007, published 2011)

Legend:
rabbit VX2-tumor = assay: CT tumor perfusion imaging in a tumor bearing rabbit; assay type: in vivo; conditions: for HU value, ROI 1 Tumor vessel / HU value, ROI 2 Vessel / HU value, ROI 3 Tumor vital tissue / HU value, ROI 4 Tumor necrotic tissue / HU value, ROI 5 Whole tumor: 300 mgI/kg b.w.
From the text: The goal of the study was to explore the potential of different contrast media to visualize tumor perfusion.

[1] = Particle size during milling, PCS; assay type: physicochemical
From the text: This is the most widely used technique for particle size density determination and there are two main variations: photon correlation spectroscopy (PCS), and Fraunhofer Diffraction (FD). The choice is dictated by the particle size range under investigation. PCS works for sizes from a few nanometers up to about 1 micron (1000 nm), and FD works from about 1 micron up to millimeters. Both methods are called “ensemble averaging methods.” This means that the two relevant pieces of information needed to describe the particle size density (the actual size and the amount of material at that size) need to be deconvoluted from a single measurement of the amount of light scattered. This involves application of extremely complex theory and equally complex deconvolution algorithms (Kerker, M. (1969) The Scattering of Light and other Electromagnetic Radiation. Academic Press, New York). Thus, both measurement variations are intrinsically low resolution: typically the best that can be achieved is to differentiate between two class sizes (Weiner, B. B. (1984) Modern Methods of Particle Sizing. Barth, H. (ed). Wiley-Interscience). A technical issue arises when the particle size density extends across the one micron point, because then the two different algorithms/theories need to be applied and these cannot be combined together. Attempts to do so result in artifacts in the particle size density such that commercial instruments smooth the data resulting in even less resolution. Being based on light scattering, the fundamental value obtained is an “intensity-weighted” number (Di). Transforming the Di value into a Dv value presents several challenges. The first is that, in addition to the assumption of sphereicity, both PCS and FD weight the intensity differently, and the second is that the transform necessitates application of scattering and efficiency corrections (Weiner, B. B., Fairhurst, D., and Tscharnuter, W. W. (1991) Particle Size Distribution II—Assessment and Characterization. Provder, T. (ed). ACS Symposium Series No. 472. American Chemical Society). Although such corrections can be calculated from Mie theory (Kerker, M. (1969) The Scattering of Light and other Electromagnetic Radiation. Academic Press, New York), they are particle size dependent and require knowledge of the optical properties (complex refractive index) of both the particles and the surrounding medium. The result is that the Dv value (and if further transforms are made to Ds and Dn) can be widely inaccurate. However, for quality control purposes the technique is extremely fast and, for measurements on the same material, extremely reproducible. Laser light scattering may also be referred to as Dynamic Light Scattering (DLS) and generally refers to the PCS technique. Asymmetrical flow field-flow-fractionation (AF4) is a newer method based on light scattering which may be employed. The benefit A4F is that the method is able to separate nanoparticle mixtures prior to DLS analysis.
(§1) N1177 was milled to the desired particle size distribution. The particle size during milling was monitored in a preliminary study by periodically measuring particle size using XDC and PCS instruments.

[2] = Particle size during milling, XDC; assay type: physicochemical
From the text: In one embodiment, XDC (X-ray disc centrifuge sedimentometry) is used to measure particle size distribution. This is one of the most precise methods available for inorganic materials. The technique is based on the fact that particles of a different size (and of the same density) will take different times to travel between two points under the same force (e.g., gravity, centrifugal force): a larger particle will travel faster than a small particle. The derivation of the Stokes' equation for centrifugal sedimentation has been described many times in the literature (Thomas, J. C., and Fairhurst, D. (1991) Surface Phenomena and Fine Particles in Water-based Coatings and Paints. Sharma, M. K., and Micale, F. J. (eds), Plenum Press, New York). The relationship between size and the time taken is a square function. Thus, if a particle of (for example) one micron, takes one second to traverse a given distance, a 0.1 micron particle will take 100 seconds. With a distribution a particle sizes, the particles will effectively fractionate as they move under the proscribed (centrifugal) force. Because time can be measured extremely precisely, the sizes detected can be measured with great precision. The method used to determine the “amount” of material at any given size is X-ray absorbtion. For many inorganic materials, X-rays are absorbed in proportion to mass. The particle size density is therefore “mass-weighted.” Since, for a given particle density, mass is proportional to volume, a “volume-weighted” value (Dv) can be calculated for particle size density. Making the assumption that the particles are spherical, Dv can be transformed into either a surface-weighted value (Ds) or a number-weighted value (Dn). The latter number can be compared with the size determined from electron microscopy. For particle sizes in the colloidal domain (less than 1 micron), the assumption of sphericity is quite reasonable and becomes more so as the particle size gets smaller into the deep sub-micron (<100 nm) and the true nanometer (ca 10 nm) range. The size range that can be accommodated in XDC measurements is dictated only by the width of the particle size density, e.g., how long the measurement will take. The XDC method can be quite time consuming for a very broad particle size density.
as §1

SPF-mice = conditions: established marketed contrast media, comparison value; cited from earlier work
erythrocytes = assay: Influence on erythrocyte morphology (damage index) in vitro; assay type: cell-based, human; conditions: final conc. 52.86 mg I/mL, value in % of maximal damage index
Description: Effects on red blood cells can be monitored in vitro, by exposing human blood to contrast agents, monitoring the appearance of deformed erythrocytes and deriving a “damage index” (D.I.) immediately after exposure, 1 and 2 hours after incubation. Parameters: Morphological changes of blood erxthrocytes;

Question: Which results are given for CCOC(=O)CCCCCOC(=O)c1c(I)c(NC(C)=O)c(I)c(NC(C)=O)c1I [Compound N1177, 6-ethoxy-6-oxohexy-3,5-bis(acetylamino)-2,4,6-triiodobenzoate]?
Answer: HU value, ROI 1 Tumor vessel (rabbit VX2-tumor): 81 HU; HU value, ROI 2 Vessel (rabbit VX2-tumor): 307 HU; HU value, ROI 3 Tumor vital tissue (rabbit VX2-tumor): 5 HU; HU value, ROI 4 Tumor necrotic tissue (rabbit VX2-tumor): 9 HU; HU value, ROI 5 Whole tumor (rabbit VX2-tumor): 13 HU; Mean Effective Diameter (PCS) ([1]; Milled Day 3): 158 nm; Mean Effective Diameter (PCS) ([1]; Milled Day 4): 151 nm; Mean Effective Diameter (PCS) ([1]; Milled Day 5): 149 nm; Mean Effective Diameter (PCS) ([1]; Milled Day 6): 148 nm; Mean Effective Diameter (PCS) ([1]; Milled Day 7): 147 nm; Mean Effective Diameter (PCS) ([1]; T = 0 (unmilled)): 236 nm; Mean Size DN (XDC) ([2]; Milled Day 3): 84 nm; Mean Size DV (XDC) ([2]; Milled Day 3): 148 nm; Mean Size DN (XDC) ([2]; Milled Day 5): 79 nm; Mean Size DV (XDC) ([2]; Milled Day 5): 143 nm; Mean Size DN (XDC) ([2]; Milled Day 7): 77 nm; Mean Size DV (XDC) ([2]; Milled Day 7): 138 nm; Mean Size DN (XDC) ([2]; T = 0 (unmilled)): 173 nm; Mean Size DV (XDC) ([2]; T = 0 (unmilled)): 424 nm

Question: Which results are given for COCC(=O)Nc1c(I)c(C(=O)NCC(O)CO)c(I)c(C(=O)N(C)CC(O)CO)c1I (centres unmarked) [Ultravist]?
Answer: LD50 (SPF-mice): > 12 g Iodine/kg bw; HU value, ROI 1 Tumor vessel (rabbit VX2-tumor): 95 HU; HU value, ROI 2 Vessel (rabbit VX2-tumor): 294 HU; HU value, ROI 3 Tumor vital tissue (rabbit VX2-tumor): 30 HU; HU value, ROI 4 Tumor necrotic tissue (rabbit VX2-tumor): 4 HU; HU value, ROI 5 Whole tumor (rabbit VX2-tumor): 37 HU; tumor perfusion (intra-/extravasal) (rabbit VX2-tumor; dynamic CT 0-80 s): intra- and extravasal perfusion; Damage index after incubation (erythrocytes; 0 h): 31.2%; Damage index after incubation (erythrocytes; 1 h): 12.2%; Damage index after incubation (erythrocytes; 2 h): 24.4%
